Columns and labels:
SW837 = test: fitted bottom plateau of viability curve, % of DMSO control; higher = less maximal inhibition; extreme values may be limits of the assay
Method: (§1)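 CellTiter-Glo proliferation assay in KRAS G12C mutant NCI-H2122 (72 h), SW837 (144 h) and NCI-H358 cells in 384-well plates. Monotherapy dose response was fitted with a four-parameter curve after normalisation to DMSO controls (% of control, PoC). IC50 is the relative IC50, averaged over replicates. Bottom is the fitted lower plateau in %PoC; Max.Conc. is the top dose tested.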

NCI-H2122 = test: as above
Method: as §1

| SMILES | fitted bottom plateau of viability curve (SW837) [%] | fitted bottom plateau of viability curve (NCI-H2122) [%] |
| --- | --- | --- |
| CC(C)(C(=O)NCC(F)(F)C(F)(F)F)C(=O)N[C@@H]1C(=O)Nc2ccccc2-c2ccccc21 (top concentration tested 9999.9 nM) | 98.6 | 77.8 |
| NC(=O)c1ccc(-c2nc(-c3ccccn3)c(-c3ccc4c(c3)OCO4)[nH]2)cc1 (top concentration tested 9999.9 nM) | 96.5 | 96.2 |
| c1ccc(-c2nn3c(c2-c2ccnc4cc(OCCN5CCOCC5)ccc24)CCC3)nc1 (top concentration tested 9999.9 nM) | 90.3 | 78.1 |
| CN(C)CCCC(=O)Nc1n[nH]c2nnc(-c3ccccc3)cc12 (top concentration tested 10000 nM) | 85.9 | 76.1 |
| COc1ccc(Cn2ccc3ccc(C(=O)NO)cc32)cc1 (top concentration tested 10000 nM) | 99.9 | 67.3 |
| On1ncc2cc(CCc3nn[nH]n3)ccc21 (top concentration tested 10000 nM) | 88.1 | 73.1 |
| Cc1cc(Nc2nc(N[C@@H](C)c3ncc(F)cn3)ncc2Cl)[nH]n1 [AZD-1480] (top concentration tested 10000 nM) | 87.9 | 67 |
| NC(=O)Nc1cc(-c2cccc(F)c2)sc1C(=O)N[C@H]1CCCNC1 [AZD-7762] (top concentration tested 99.882 nM) | 89.7 | 62.8 |
| Cc1ncc([N+](=O)[O-])n1CCOC(=O)NC(Nc1ncccn1)C(Cl)(Cl)Cl (configuration not stated) [Apcin] (top concentration tested 10000 nM) | 95.3 | 83.2 |
| CCN1CCN(c2ccc(Nc3cc(N(C)C(=O)Nc4c(Cl)c(OC)cc(OC)c4Cl)ncn3)cc2)CC1 [BGJ398] (top concentration tested 1000 nM) | 90.4 | 78.2 |
| O=C(Cc1ccccc1)Nc1nnc(CCSCCc2nnc(NC(=O)Cc3ccccc3)s2)s1 [BPTES] (top concentration tested 10000 nM) | 90.2 | 56.3 |
| Nc1nc(Nc2ccc3c(c2)CC[C@@H](N2CCCC2)CC3)nn1-c1cc2c(nn1)-c1ccccc1CCC2 [Bemcentinib] (top concentration tested 1000.1 nM) | 84.4 | 70.6 |
| C=C(c1ccc(C(=O)O)cc1)c1cc2c(cc1C)C(C)(C)CCC2(C)C [Bexarotene] (top concentration tested 10000 nM) | 96.9 | 89.9 |
| CC(O)(CS(=O)(=O)c1ccc(F)cc1)C(=O)Nc1ccc(C#N)c(C(F)(F)F)c1 (configuration not stated) [Bicalutamide] (top concentration tested 10000 nM) | 77.3 | 71.7 |
| O=C(O)CCCCC(CCSCc1ccccc1)SCc1ccccc1 (configuration not stated) [CPI-613] (top concentration tested 10000 nM) | 89.5 | 93.6 |
| CCCCCOC(=O)Nc1nc(=O)n([C@@H]2O[C@H](C)[C@@H](O)[C@H]2O)cc1F [Capecitabin] (top concentration tested 50000 nM) | 101 | 75.7 |
| C[C@H](CS)C(=O)N1CCC[C@H]1C(=O)O [Captopril] (top concentration tested 1000 nM) | 91.7 | 65.1 |
| O=C(O)C1(C(=O)O)CCC1.[NH2-].[NH2-].[Pt+2] [Carboplatin] (top concentration tested 10000 nM) | 88.3 | 63.4 |

| SMILES | fitted bottom plateau of viability curve (SW837) [%] | fitted bottom plateau of viability curve (NCI-H2122) [%] |
| --- | --- | --- |
| COc1cc2c(Oc3ccc4[nH]c(C)cc4c3F)ncnc2cc1OCCCN1CCCC1 [Cediranib] (top concentration tested 100.11 nM) | 90.6 | 70 |
| N.N.[Cl][Pt][Cl] [Cisplatin] (top concentration tested 10000 nM) | 88.2 | 75.2 |
| CC(C)(C)c1nc(-c2cccc(NS(=O)(=O)c3c(F)cccc3F)c2F)c(-c2ccnc(N)n2)s1 [Dabrafenib] (top concentration tested 1000.1 nM) | 93.1 | 73.8 |
| C[C@@H]1C[C@H]2[C@@H]3CCC4=CC(=O)C=C[C@]4(C)[C@@]3(F)[C@@H](O)C[C@]2(C)[C@@]1(O)C(=O)CO [Dexamethasone] (top concentration tested 10000 nM) | 82 | 58.2 |
| CNC(=O)c1ccc(N2C(=S)N(c3ccc(C#N)c(C(F)(F)F)c3)C(=O)C2(C)C)cc1F [Enzalutamide] (top concentration tested 10000 nM) | 93.1 | 83.9 |
| CO[C@H]1C[C@@H]2CC[C@@H](C)[C@@](O)(O2)C(=O)C(=O)N2CCCC[C@H]2C(=O)O[C@H]([C@H](C)C[C@@H]2CC[C@@H](OCCO)[C@H](OC)C2)CC(=O)[C@H](C)/C=C(\C)[C@@H](O)[C@@H](OC)C(=O)[C@H](C)C[C@H](C)/C=C/C=C/C=C/1C [Everolimus] (top concentration tested 99.976 nM) | 95.4 | 76.4 |
| Nc1nc(F)nc2c1ncn2[C@@H]1O[C@H](CO)[C@@H](O)[C@@H]1O [Fludarabine] (top concentration tested 9999.9 nM) | 59.4 | 71 |
| C[C@]12CC[C@@H]3c4ccc(O)cc4C[C@@H](CCCCCCCCC[S+]([O-])CCCC(F)(F)C(F)(F)F)[C@H]3[C@@H]1CC[C@@H]2O (some centres not stated) [Fulvestrant] (top concentration tested 1000 nM) | 91.1 | 75.9 |
| CN(C)c1ccccc1CN1CCCN(Cc2ccccc2N(C)C)C1c1ccncc1 [GANT61] (top concentration tested 10000 nM) | 83.1 | 70.7 |
| Cc1ccc(NC(=O)c2ccc(CN3CCN(C)CC3)cc2)cc1Nc1nccc(-c2cccnc2)n1 [Imatinib] (top concentration tested 1000 nM) | 95.9 | 71 |
| CN[C@@H](C)C(=O)N[C@H](C(=O)N1CCC[C@H]1c1nc(C(=O)c2ccc(F)cc2)cs1)C1CCCCC1 [LCL161] (top concentration tested 10000 nM) | 86.1 | 69.3 |
| Nc1cccc2c1CN(C1CCC(=O)NC1=O)C2=O (configuration not stated) [Lenalidomide] (top concentration tested 10000 nM) | 89.9 | 84.3 |
| O=C(O)c1nn(Cc2ccc(Cl)cc2Cl)c2ccccc12 [Lonidamine] (top concentration tested 10000 nM) | 86.4 | 77.4 |
| CC[C@H](C)C(=O)O[C@H]1C[C@@H](C)C=C2C=C[C@H](C)[C@H](CC[C@@H]3C[C@@H](O)CC(=O)O3)[C@H]21 [Lovastatin] (top concentration tested 10000 nM) | 83.6 | 56.1 |
| Cc1ccc(NC(=O)c2ccc(CN3CCN(C)CC3)cc2)cc1Nc1nc(-c2cccnc2)cs1 [Masitinib] (top concentration tested 1000.1 nM) | 95.6 | 79.5 |
| C[C@H](Cc1ccc(O)c(O)c1)[C@@H](C)Cc1ccc(O)c(O)c1 [Masoprocol] (top concentration tested 9999.8 nM) | 86.2 | 71.4 |
| CN(C)C(=N)NC(=N)N [Metformin] (top concentration tested 50000 nM) | 97.5 | 76.5 |
| CN1CCN(c2ccc(-c3cccc(CN4CCOCC4)c3)cc2NC(=O)c2c[nH]c(=O)cc2C(F)(F)F)CC1 [OICR-9429] (top concentration tested 10000 nM) | 95.4 | 62.6 |
